Source: patent US12371464B2, “Polypeptides and uses thereof” (MEDIMMUNE LIMITED, priority 2020, dated 2025)
Numbered stars: 1 amine (or outer) side, 2 acyl side, 3 side chain; on linkers, the order of the positions; unused ones are H or OH. Bridge positions count the residues as written; N and C are the ends. Square brackets hold non-standard residues; d marks the D form. Side chains are listed from the residue outwards. Peptide text beside a SMILES is read from it. * marks the point of attachment. C20 diacid = O=C(O)CCCCCCCCCCCCCCCCCCC(=O)*; C18 diacid = O=C(O)CCCCCCCCCCCCCCCCC(=O)*; γGlu = O=C(O)[C@H](CCC(=O)[*:2])N[*:1]; αMeF = C[C@](N)(Cc1ccccc1)C(=O)O; AEEA = NCCOCCOCC(=O)O

Test: Thioflavin T fibrillation assay
Type: physicochemical
Settings: for Time taken to detect increase in fluorescence intensity: 1 mg/mL in 25 mM sodium acetate buffer pH 4.0, 37° C., 6 days, orbital shaking, >144 h = no increase; for fibril-forming tendency on conjugating pramlintide to a lipid: as seen in Table 7
Source text: Peptide aggregation that form fibrils is an indication of physical instability. Fibril formation in solution poses a significant risk for the stability of injectable peptide drug products. Thioflavin T (ThT) fibrillation assay is a useful tool to assess the aggregation kinetics of a peptide or protein under accelerated and stressed conditions that can be used to forecast the long-term viability of a compound in solution. ThT can selectively bind amyloid fibrils and the resultant complex emits strong fluorescence signal at 482 nm when excited at 450 nm (Anal Biochem. 1989 March; 177 (2): 244-9). Monitoring of the change in fluorescence signal is an established method to study the fibril forming potential of peptides and proteins. ThT (purchased from Sigma Aldrich) stock solution is prepared by dissolving the ThT powder in Milli-Q water and filtered to obtain a 0.25 mM solution. The concentration of the solution is measured at 412 nm using an extinction coefficient of 36 mM-1 cm-1. Test peptides were dissolved at 1 mg/mL in 25 mM sodium acetate buffer pH 4.0. 100 μL aliquot of peptide solution and 5 μL aliquot of ThT solution were placed in a clear bottom black fluorescence 96-well plate. 5 replicates of each test samples were placed in the same row of the plate. Buffer was placed in control wells for baseline correction. All empty wells were filled with water to prevent evaporation. The plate was sealed with aluminium seal and placed in fluorescence plate reader and incubated for 6 days at 37° C. with intermittent orbital shaking at 500 to 750 rpm. The fluorescence intensity was measured every 30 min using excitation at 444 nm and emission at 480 nm. The fibril forming potential of the test peptides was determined by measuring the average time taken to detect an increase in baseline corrected fluorescence intensity.

Time taken to detect increase in fluorescence intensity | fibril-forming tendency on conjugating pramlintide to a lipid | SMILES
>144 h |  | CC[C@H](C)[C@H](NC(=O)[C@@H]1CCCN1C(=O)CNC(=O)[C@](C)(Cc1ccccc1)NC(=O)[C@H](CC(N)=O)NC(=O)[C@H](CC(N)=O)NC(=O)[C@H](CO)NC(=O)[C@H](CO)NC(=O)[C@H](Cc1c[nH]cn1)NC(=O)[C@@H](NC(=O)[C@H](CC(C)C)NC(=O)[C@H](Cc1ccccc1)NC(=O)[C@H](CC(N)=O)NC(=O)[C@H](C)NC(=O)[C@H](CC(C)C)NC(=O)[C@H](CCCNC(=N)N)NC(=O)[C@H](CCC(N)=O)NC(=O)[C@@H](NC(=O)[C@H](C)NC(=O)[C@@H]1CSSC[C@H](NC(=O)[C@@H](N)CCCCNC(=O)CC[C@H](NC(=O)CC[C@H](NC(=O)CCCCCCCCCCCCCCCCC(=O)O)C(=O)O)C(=O)O)C(=O)N[C@@H](CC(N)=O)C(=O)N[C@@H]([C@@H](C)O)C(=O)N[C@@H](C)C(=O)N[C@@H]([C@@H](C)O)C(=O)N1)[C@@H](C)O)C(C)C)C(=O)N[C@@H](CC(C)C)C(=O)N1CCC[C@H]1C(=O)N1CCC[C@H]1C(=O)N[C@H](C(=O)N[C@@H](CCCNC(=N)N)C(=O)N[C@H](C(=O)NCC(=O)N[C@@H](CO)C(=O)N[C@@H](CC(N)=O)C(=O)N[C@H](C(=O)N[C@@H](Cc1ccc(O)cc1)C(N)=O)[C@@H](C)O)C(C)C)[C@@H](C)O [Peptide 24, K(γE-γE-C18diacid)[CNTATC]ATQRLANFLVHSSNN(αMePhe)GPILPPTRVGSNTY-amide] (H-K([γGlu-γGlu-C18 diacid])CNTATCATQRLANFLVHSSNN[αMeF]GPILPPTRVGSNTY-NH2; disulfide 2-7; N-terminus assumed)
>144 h |  | CC[C@H](C)[C@H](NC(=O)[C@@H]1CCCN1C(=O)CNC(=O)[C@](C)(Cc1ccccc1)NC(=O)[C@H](CC(N)=O)NC(=O)[C@H](CC(N)=O)NC(=O)[C@H](CO)NC(=O)[C@H](CO)NC(=O)[C@H](Cc1c[nH]cn1)NC(=O)[C@H](CCCNC(=N)N)NC(=O)[C@H](CC(C)C)NC(=O)[C@H](Cc1ccccc1)NC(=O)[C@H](CCC(=O)O)NC(=O)[C@H](C)NC(=O)[C@H](CC(C)C)NC(=O)[C@H](CCCNC(=N)N)NC(=O)[C@H](CCC(N)=O)NC(=O)[C@@H](NC(=O)[C@H](C)NC(=O)[C@@H]1CSSC[C@H](NC(=O)[C@@H](N)CCCCNC(=O)CC[C@H](NC(=O)CC[C@H](NC(=O)CCCCCCCCCCCCCCCCC(=O)O)C(=O)O)C(=O)O)C(=O)N[C@@H](CC(N)=O)C(=O)N[C@@H]([C@@H](C)O)C(=O)N[C@@H](C)C(=O)N[C@@H]([C@@H](C)O)C(=O)N1)[C@@H](C)O)C(=O)N[C@@H](CC(C)C)C(=O)N1CCC[C@H]1C(=O)N1CCC[C@H]1C(=O)N[C@H](C(=O)N[C@@H](CC(N)=O)C(=O)N[C@H](C(=O)NCC(=O)N[C@@H](CO)C(=O)N[C@@H](CC(N)=O)C(=O)N[C@H](C(=O)N[C@@H](Cc1ccc(O)cc1)C(N)=O)[C@@H](C)O)C(C)C)[C@@H](C)O [Peptide 11, K(γE-γE-C18diacid)[CNTATC]ATQRLAEFLRHSSNN(αMePhe)GPILPPTNVGSNTY-amide] (H-K([γGlu-γGlu-C18 diacid])CNTATCATQRLAEFLRHSSNN[αMeF]GPILPPTNVGSNTY-NH2; disulfide 2-7; N-terminus assumed)
25 h |  | CC[C@H](C)[C@H](NC(=O)[C@@H]1CCCN1C(=O)CNC(=O)[C@](C)(Cc1ccccc1)NC(=O)[C@H](CC(N)=O)NC(=O)[C@H](CC(N)=O)NC(=O)[C@H](CO)NC(=O)[C@H](CO)NC(=O)[C@H](Cc1c[nH]cn1)NC(=O)[C@@H](NC(=O)[C@H](CC(C)C)NC(=O)[C@H](Cc1ccccc1)NC(=O)[C@H](CC(N)=O)NC(=O)[C@H](C)NC(=O)[C@H](CC(C)C)NC(=O)[C@H](CCCNC(=N)N)NC(=O)[C@H](CCC(N)=O)NC(=O)[C@@H](NC(=O)[C@H](C)NC(=O)[C@@H]1CSSC[C@H](NC(=O)[C@@H](N)CCCCNC(=O)CC[C@H](NC(=O)CC[C@H](NC(=O)CCCCCCCCCCCCCCCCC(=O)O)C(=O)O)C(=O)O)C(=O)N[C@@H](CC(N)=O)C(=O)N[C@@H]([C@@H](C)O)C(=O)N[C@@H](C)C(=O)N[C@@H]([C@@H](C)O)C(=O)N1)[C@@H](C)O)C(C)C)C(=O)N[C@@H](CC(C)C)C(=O)N1CCC[C@H]1C(=O)N1CCC[C@H]1C(=O)N[C@H](C(=O)N[C@@H](CC(N)=O)C(=O)N[C@H](C(=O)NCC(=O)N[C@@H](CO)C(=O)N[C@@H](CC(N)=O)C(=O)N[C@H](C(=O)N[C@@H](Cc1ccc(O)cc1)C(N)=O)[C@@H](C)O)C(C)C)[C@@H](C)O [Peptide 13, K(γE-γE-C18diacid)[CNTATC]ATQRLANFLVHSSNN(αMePhe)GPILPPTNVGSNTY-amide] (H-K([γGlu-γGlu-C18 diacid])CNTATCATQRLANFLVHSSNN[αMeF]GPILPPTNVGSNTY-NH2; disulfide 2-7; N-terminus assumed)
15 h | increases the fibril-forming tendency | CC[C@H](C)[C@H](NC(=O)[C@@H]1CCCN1C(=O)CNC(=O)[C@H](Cc1ccccc1)NC(=O)[C@H](CC(N)=O)NC(=O)[C@H](CC(N)=O)NC(=O)[C@H](CO)NC(=O)[C@H](CO)NC(=O)[C@H](Cc1c[nH]cn1)NC(=O)[C@@H](NC(=O)[C@H](CC(C)C)NC(=O)[C@H](Cc1ccccc1)NC(=O)[C@H](CC(N)=O)NC(=O)[C@H](C)NC(=O)[C@H](CC(C)C)NC(=O)[C@H](CCCNC(=N)N)NC(=O)[C@H](CCC(N)=O)NC(=O)[C@@H](NC(=O)[C@H](C)NC(=O)[C@@H]1CSSC[C@H](NC(=O)[C@@H](N)CCCCNC(=O)COCCOCCNC(=O)COCCOCCNC(=O)CC[C@H](NC(=O)CCCCCCCCCCCCCCCCC(=O)O)C(=O)O)C(=O)N[C@@H](CC(N)=O)C(=O)N[C@@H]([C@@H](C)O)C(=O)N[C@@H](C)C(=O)N[C@@H]([C@@H](C)O)C(=O)N1)[C@@H](C)O)C(C)C)C(=O)N[C@@H](CC(C)C)C(=O)N1CCC[C@H]1C(=O)N1CCC[C@H]1C(=O)N[C@H](C(=O)N[C@@H](CC(N)=O)C(=O)N[C@H](C(=O)NCC(=O)N[C@@H](CO)C(=O)N[C@@H](CC(N)=O)C(=O)N[C@H](C(=O)N[C@@H](Cc1ccc(O)cc1)C(N)=O)[C@@H](C)O)C(C)C)[C@@H](C)O [Peptide 6] (H-K([AEEA-AEEA-γGlu-C18 diacid])CNTATCATQRLANFLVHSSNNFGPILPPTNVGSNTY-NH2; disulfide 2-7; N-terminus assumed)
>144 h |  | CC[C@H](C)[C@H](NC(=O)[C@@H]1CCCN1C(=O)CNC(=O)[C@](C)(Cc1ccccc1)NC(=O)[C@H](CC(N)=O)NC(=O)[C@H](CC(N)=O)NC(=O)[C@H](CO)NC(=O)[C@H](CO)NC(=O)[C@H](Cc1c[nH]cn1)NC(=O)[C@H](CCCNC(=N)N)NC(=O)[C@H](CC(C)C)NC(=O)[C@H](Cc1ccccc1)NC(=O)[C@H](CC(N)=O)NC(=O)[C@H](C)NC(=O)[C@H](CC(C)C)NC(=O)[C@H](CCCNC(=N)N)NC(=O)[C@H](CCC(N)=O)NC(=O)[C@@H](NC(=O)[C@H](C)NC(=O)[C@@H]1CSSC[C@H](NC(=O)[C@@H](N)CCCCNC(=O)CC[C@H](NC(=O)CC[C@H](NC(=O)CCCCCCCCCCCCCCCCC(=O)O)C(=O)O)C(=O)O)C(=O)N[C@@H](CC(N)=O)C(=O)N[C@@H]([C@@H](C)O)C(=O)N[C@@H](C)C(=O)N[C@@H]([C@@H](C)O)C(=O)N1)[C@@H](C)O)C(=O)N[C@@H](CC(C)C)C(=O)N1CCC[C@H]1C(=O)N1CCC[C@H]1C(=O)N[C@H](C(=O)N[C@@H](CCC(=O)O)C(=O)N[C@H](C(=O)NCC(=O)N[C@@H](CO)C(=O)N[C@@H](CC(N)=O)C(=O)N[C@H](C(=O)N[C@@H](Cc1ccc(O)cc1)C(N)=O)[C@@H](C)O)C(C)C)[C@@H](C)O [Peptide 18, K(γE-γE-C18diacid)[CNTATC]ATQRLANFLRHSSNN(αMePhe)GPILPPTEVGSNTY-amide] (H-K([γGlu-γGlu-C18 diacid])CNTATCATQRLANFLRHSSNN[αMeF]GPILPPTEVGSNTY-NH2; disulfide 2-7; N-terminus assumed)
<5 h | increases the fibril-forming tendency | CC[C@H](C)[C@H](NC(=O)[C@@H]1CCCN1C(=O)CNC(=O)[C@H](Cc1ccccc1)NC(=O)[C@H](CC(N)=O)NC(=O)[C@H](CC(N)=O)NC(=O)[C@H](CO)NC(=O)[C@H](CO)NC(=O)[C@H](Cc1c[nH]cn1)NC(=O)[C@@H](NC(=O)[C@H](CC(C)C)NC(=O)[C@H](Cc1ccccc1)NC(=O)[C@H](CC(N)=O)NC(=O)[C@H](C)NC(=O)[C@H](CC(C)C)NC(=O)[C@H](CCCNC(=N)N)NC(=O)[C@H](CCC(N)=O)NC(=O)[C@@H](NC(=O)[C@H](C)NC(=O)[C@@H]1CSSC[C@H](NC(=O)[C@H](CCCCN)NC(=O)CC[C@H](NC(=O)CCCCCCCCCCCCCCCCCCC(=O)O)C(=O)O)C(=O)N[C@@H](CC(N)=O)C(=O)N[C@@H]([C@@H](C)O)C(=O)N[C@@H](C)C(=O)N[C@@H]([C@@H](C)O)C(=O)N1)[C@@H](C)O)C(C)C)C(=O)N[C@@H](CC(C)C)C(=O)N1CCC[C@H]1C(=O)N1CCC[C@H]1C(=O)N[C@H](C(=O)N[C@@H](CC(N)=O)C(=O)N[C@H](C(=O)NCC(=O)N[C@@H](CO)C(=O)N[C@@H](CC(N)=O)C(=O)N[C@H](C(=O)N[C@@H](Cc1ccc(O)cc1)C(N)=O)[C@@H](C)O)C(C)C)[C@@H](C)O [Peptide 112] ({C20 diacid-γGlu}-KCNTATCATQRLANFLVHSSNNFGPILPPTNVGSNTY-NH2; disulfide 2-7)
